Source: patent US20260159474A1, “Aminoindane Compounds and Compositions and Methods of Their Therapeutic Use” (Solvonis Therapeutics Ireland Holdings Limited, priority 2021, published 2026)

Test system: extracellular dopamine (DA) in the nucleus accumbens (NAcc)
Test: In vivo microdialysis in rat nucleus accumbens, dopamine
Set-up: species or system Sprague Dawley rats
Settings: 7 mg/kg I.P.
Description: Methods and Procedure: This study was conducted in compliance with previously described procedures to assure data integrity, adherence to GLP regulations, and standard preclinical study and surgery procedures. The in vivo microdialysis technique was applied to measure the over-time variations of DA, 5-HT, and NE extracellular (EC) concentrations in conscious, freely-moving Sprague Dawley rats. Levels of the neurotransmitters in microdialysis samples were determined using LC-MS/MS analysis. The experiment was also conducted with MDMA for comparative purposes.
As it relates to cannula implantation, the rats were anesthetized with isoflurane 4% in oxygen (2-2.5 L/min), then the isoflurane concentration 2-2.5% was maintained via a nose cone adapted to the stereotaxic apparatus. The rats were treated with meloxicam (0.2 mg/kg, subcutaneously, sc; Meloxidolor) and amoxicilline (150 mg/kg, sc, Betamox LA). The skull was then shaved and disinfected. Rats were then placed in a stereotaxic apparatus for small animals. One vertical guide cannula was inserted through a 1 mm hole drilled on the exposed skull. Coordinates, with respect to the bregma to target specific brain areas, followed indications from stereotaxic atlas of the rat brain. Specifically a guide cannula (MAB 4.12.IC, Agn Tho's AB, Lidinga, Sweden) was inserted in the NAcc (anteroposterior+1.6; lateral −1.6; dorsoventral −6.0). The guide cannula was then secured with dental cement and 2-4 screws. At the end of the surgery the animal was isolated in a single cage during recovery, for a period of at least one week, during which animal health conditions were checked twice daily and the weight recorded twice a week. Animals continued to be housed singly throughout the experiment. One day before the experiment the cannula stylet was removed and a microdialysis probe with a dialyzing length of 2 mm (MAB 4.12.2 Cu, Agn Tho's AB, Lidingo, Sweden) was inserted. Probes can be re-used 2 times for 2 experimental sessions after appropriate cleaning with fresh milliQ water.
Post-surgery, the rats were maintained in a heating chamber prior to waking up in order to avoid hypothermia that could be caused by anaesthesia. 5 mL of physiologic solution was subcutaneously administered immediately after surgery, and once/day for 2-3 days, if signs of dehydration are noticed. Meloxicam (Meloxidolor) 0.2 mg/kg was again administered subcutaneously the day after surgery as well as after 48 h after surgery together with Amoxicilline Long Acting (Betamox LA) 150 mg/kg. Health status and body weight was checked every day during the first week.
The animals were treated with the therapeutic compounds, and MDMA, or their vehicle (saline) according to a Latin square design over 5 separate experimental days (one day/week). The treatments were administered in a volume of 1 mL/kg intraperitoneally.
On the day of the experiment, each animal was taken into the laboratory in its home cage. Inlet tubing of the probe was attached to a dual quartz-lined two channel liquid swivel mounted on a low mass spring counterbalance arm which, in turn, was connected to a gas-tight syringe on a microinfusion pump. […] An equilibration period of about two hours of perfusion was allowed before collecting samples. Following the equilibration period, 4 basal samples were collected for each experimental animal followed by further 10 post-treatment samples. Samples were collected every 20 minutes (up to 3 hours and 20 minutes post-treatment) by means of a refrigerated auto-sampler (Univentor 820 Microsampler, AgnTho's, Sweden) maintained at +8 “C. At the end of all experimental sessions, 2 μL of 0.1% methylene blue solution was injected through the microdialysis probe, animals were euthanized, and their brains removed to confirm the correct probe-position.
As mentioned, the concentration of DA, 5-HT and NE in CSF samples were determined using an optimized method based on LC-MS/MS analysis. […]

Structure (SMILES) | Dopamine (DA) level (% from baseline) (0 min (basal sample)) | Dopamine (DA) level (% from baseline) (20 min post-admin) | Dopamine (DA) level (% from baseline) (40 min post-admin) | Dopamine (DA) level (% from baseline) (60 min post-admin) | Dopamine (DA) level (% from baseline) (80 min post-admin) | Dopamine (DA) level (% from baseline) (100 min post-admin) | Dopamine (DA) level (% from baseline) (120 min post-admin) | Dopamine (DA) level (% from baseline) (140 min post-admin) | Dopamine (DA) level (% from baseline) (160 min post-admin) | Dopamine (DA) level (% from baseline) (180 min post-admin) | Dopamine (DA) level (% from baseline) (200 min post-admin) | Dopamine (DA) level (% from baseline) (−20 min (basal sample))
COC(=O)c1ccc2c(c1)CC(N)C2 (stereo not drawn) [CMP-405, 2-aminoindane-5-methylcarboxylate] | 99% | 134% | 122% | 139% | 117% | 123% | 113% | 99% | 98% | 96% | 107% | 101%
CNC(C)Cc1ccc2c(c1)OCO2 (stereo not drawn) [MDMA] | 93% | 113% | 381% | 520% | 448% | 399% | 396% | 357% | 324% | 293% | 278% | 107%
COc1ccc2c(c1)CC(N)C2 (stereo not drawn) [MEAI, 5-methoxy-2-aminoindane] | 96% | 95% | 197% | 187% | 154% | 141% | 130% | 131% | 137% | 144% | 127% | 104%
